Where a name gives a salt, the structure may show the parent alone. Read-outs that look alike come from different tables or passages of the source.
Biological target: T1, Human TRPA1 (Homo sapiens, UniProt O75762)
T1 construct: expressed in transfected cells; host or cells: CHO cells (grown with 400 μg/ml G-418)
Experiment: 45Calcium uptake assay: inhibition of AITC induced cellular uptake of radioactive calcium
Type: cell-based
Conditions: human TRPA1 expressing CHO cells, AITC 30 μM
Description: The illustrative examples of the present invention were screened for TRPA1 activity according to a modified procedure described in (a) Tóth, A. et al. Life Sciences, 2003, 73, 487-498. ([…]. et al, Proc. Natl. Acad. Sci. U.S.A., 2007, 104, 13525-13530. The screening of the compounds can be carried out by other methods and procedures known to persons skilled in the art. Screening for TRPA1 Antagonist Using the ^45Calcium Uptake Assay: The inhibition of TRPA1 receptor activation was measured as inhibition of allyl isothiocyanate (AITC) induced cellular uptake of radioactive calcium. Test compounds were dissolved in 100% DMSO to prepare 10 mM stock and then diluted using plain medium with 0.1% BSA and 1.8 mM CaCl2 to get the desired concentration. The final concentration of DMSO in the reaction was 0.5% (v/v). Human TRPA1 expressing CHO cells were grown in F-12 DMEM medium with 10% FBS, 1% penicillin-streptomycin solution, and 400 μg/ml of G-418. Cells were seeded 24 h prior to the assay in 96 well plates so as to get 50,000 cells per well on the day of experiment. Cells were treated with the test compounds for 10 minutes followed by the addition of AITC at a final concentration of 30 μM and 5 μCi/ml^45Ca^+2 for 3 minutes. Cells were washed and lysed using a buffer containing 1% Triton X-100, 0.1% deoxycholate and 0.1% SDS. Radioactivity in the lysate was measured in a Packard TopCount after addition of liquid scintillant. (Toth et al, Life Sciences (2003) 73, 487-498; McNamara C R et al, Proceedings of the National Academy of Sciences, (2007) 104, 13525-13530). Concentration response curves were plotted as a % of maximal response obtained in the absence of test antagonist. IC50 values can be calculated from concentration response curve by nonlinear regression analysis using GraphPad PRISM software.

[1] = 1.0 μM, read-out: Percentage inhibition at 1.0 μM
[2] = 10.0 μM, read-out: Percentage inhibition at 10.0 μM
[3] = CHO, read-out: Percentage inhibition at 1.0 μM, 1.0 μM
[4] = CHO, read-out: Percentage inhibition at 10.0 μM, 10.0 μM

T1 sequence (O75762 whole entry): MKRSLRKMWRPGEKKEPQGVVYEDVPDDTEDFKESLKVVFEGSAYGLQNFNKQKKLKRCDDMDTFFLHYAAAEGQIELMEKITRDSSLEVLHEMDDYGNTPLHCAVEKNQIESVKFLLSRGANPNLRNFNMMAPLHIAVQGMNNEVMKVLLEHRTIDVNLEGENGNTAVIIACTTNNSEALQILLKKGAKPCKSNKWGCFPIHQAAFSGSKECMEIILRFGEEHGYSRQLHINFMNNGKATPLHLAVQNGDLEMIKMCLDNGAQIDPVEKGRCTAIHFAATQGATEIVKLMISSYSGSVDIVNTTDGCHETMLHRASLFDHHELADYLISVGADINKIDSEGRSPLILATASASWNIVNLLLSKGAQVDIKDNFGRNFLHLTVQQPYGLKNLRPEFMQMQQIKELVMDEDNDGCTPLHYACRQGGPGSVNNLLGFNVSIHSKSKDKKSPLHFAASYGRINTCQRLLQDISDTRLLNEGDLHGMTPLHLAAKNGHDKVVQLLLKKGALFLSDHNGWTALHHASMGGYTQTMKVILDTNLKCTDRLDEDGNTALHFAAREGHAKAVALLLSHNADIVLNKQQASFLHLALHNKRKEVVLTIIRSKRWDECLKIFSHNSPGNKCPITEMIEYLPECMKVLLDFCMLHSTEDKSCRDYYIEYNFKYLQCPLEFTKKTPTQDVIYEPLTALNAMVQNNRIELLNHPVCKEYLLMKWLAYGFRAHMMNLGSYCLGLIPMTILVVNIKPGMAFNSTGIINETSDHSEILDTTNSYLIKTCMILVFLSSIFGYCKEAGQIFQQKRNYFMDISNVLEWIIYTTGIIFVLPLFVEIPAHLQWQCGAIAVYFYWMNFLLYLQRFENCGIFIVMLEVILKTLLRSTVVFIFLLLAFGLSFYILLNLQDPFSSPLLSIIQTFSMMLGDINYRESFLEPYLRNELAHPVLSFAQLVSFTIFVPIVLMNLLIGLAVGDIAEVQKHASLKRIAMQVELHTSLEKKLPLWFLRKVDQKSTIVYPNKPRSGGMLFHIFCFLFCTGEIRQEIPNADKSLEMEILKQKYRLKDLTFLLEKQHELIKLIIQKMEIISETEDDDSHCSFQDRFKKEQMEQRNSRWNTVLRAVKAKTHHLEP

SMILES: Cc1sc2c(c1CC(=O)/N=c1\scc(-c3ccc(F)c(C(F)(F)F)c3F)n1COP(=O)(O)O)c(=O)n(C)c(=O)n2C [Example 15, 4-(2,4-Difluoro-3-(trifluoromethyl)phenyl)-2-((2-(1,3,6-trimethyl-2,4-dioxo-1,2,3,4-tetrahydrothieno[2,3-(1]pyrimidin-5-yl)acetyl)imino)thiazol-3 (2H)-yl)methyl dihydrogen phosphate]
- inhibition at 1 µM [1]: 81.2%
- inhibition at 10 µM [2]: 98.5%
- IC50: 100 to 500 nM

SMILES: Cn1c(=O)c2c(CC(=O)/N=c3\scc(-c4ccc(C(F)(F)F)c(F)c4)n3COC(=O)C3CCNCC3)csc2n(C)c1=O [Example 9, [2-{[(1,3-Dimethyl-2,4-dioxo-1,2,3,4-tetrahydrothieno[2,3-d]pyrimidin-5-yl)acetyl]imino}-4-[3-fluoro-4-(trifluoromethyl)phenyl]-1,3-thiazol-3(2H)-yl]methylpiperidine-4-carboxylate hydrochloride]
- inhibition at 1 µM [1]: 80.1%
- inhibition at 10 µM [2]: 94.8%
- IC50: 100 to 500 nM

SMILES: Cc1oc2c(c1CC(=O)/N=c1\scc(-c3ccc(OC(F)(F)F)c(Cl)c3)n1COC(=O)[C@@H](N)Cc1ccccc1)c(=O)n(C)c(=O)n2C [Example 24, 4-[3-Chloro-4-(trifluoromethoxy)phenyl]-2-{[(1,3,6-trimethyl-2,4-dioxo-1,2,3,4-tetrahydrofuro[2,3-d]pyrimidin-5-yl)acetyl]imino}-1,3-thiazol-3(2H)-yl]methyl L-phenylalaninate hydrochloride]
- inhibition at 1 µM [1]: 98.1%
- inhibition at 10 µM [2]: 99.8%
- IC50: < 100 nM

SMILES: Cn1c(=O)c2c(CC(=O)/N=c3\scc(-c4ccc(C(F)(F)F)c(F)c4)n3COP(=O)(O)O)csc2n(C)c1=O [Example 12, Disodium[2-{[(1,3-dimethyl-2,4-dioxo-1,2,3,4-tetrahydrothieno[2,3-d]pyrimidin-5-yl)acetyl]imino}-4-[3-fluoro-4-(trifluoromethyl)phenyl]-1,3-thiazol-3 (2H)-yl]methyl phosphate]
- IC50: 100 to 500 nM

SMILES: Cn1c(=O)c2c(CC(=O)N=c3scc(-c4ccc(C(F)(F)F)c(F)c4F)n3COP(=O)(O)O)nsc2n(C)c1=O [Example 32, Disodium-(4-(2,3-difluoro-4-(trifluoromethyl)phenyl)-2-((2-(5,7-dimethyl-4,6-dioxo-4,5,6,7-tetrahydroisothiazolo[5,4-d]pyrimidin-3-yl)acetyl)imino)thiazol-3 (2H)-yl)methyl phosphate]
- inhibition at 1 µM [1]: 13.8%
- inhibition at 10 µM [2]: 81%
- IC50: > 500 nM

SMILES: CC(C)[C@H](N)C(=O)OCn1c(-c2ccc(F)c(C(F)(F)F)c2F)cs/c1=N\C(=O)Cc1csc2c1c(=O)n(C)c(=O)n2C [Example 5, [4-[2,4-Difluoro-3-(trifluoromethyl)phenyl]-2-{[(1,3-dimethyl-2,4-dioxo-1,2,3,4-tetrahydrothieno[2,3-d]pyrimidin-5-yl)acetyl]imino}-1,3-thiazol-3 (2H)-yl]methyl L-valinate hydrochloride]
- inhibition at 1 µM (CHO, 1.0 μM, read-out: Percentage inhibition at 1.0 μM): 98.6%
- inhibition at 10 µM (CHO, 10.0 μM, read-out: Percentage inhibition at 10.0 μM): 99.9%
- IC50: < 100 nM

SMILES: CCc1sc2c(c1CC(=O)/N=c1\scc(-c3ccc(C(F)(F)F)c(F)c3)n1COP(=O)(O)O)c(=O)n(C)c(=O)n2C [Example 18, Disodium[2-{[(6-ethyl-1,3-dimethyl-2,4-dioxo-1,2,3,4-tetrahydrothieno[2,3-d]pyrimidin-5-yl)acetyl]imino}-4-[3-fluoro-4-(trifluoromethyl)phenyl]-1,3-thiazol-3(2H)-yl]methyl phosphate]
- inhibition at 1 µM [3]: 30%
- inhibition at 10 µM [4]: 88.7%

SMILES: Cc1sc2c(c1CC(=O)/N=c1\scc(-c3ccc(F)c(C(F)(F)F)c3F)n1COP(=O)(O)O)c(=O)n(C)c(=O)n2C [Example 16, Disodium(4-(2,4-difluoro-3-(trifluoromethyl)phenyl)-2-((2-(1,3,6-trimethyl-2,4-dioxo-1,2,3,4-tetrahydrothieno[2,3-d]pyrimidin-5-yl)acetyl)imino)thiazol-3(2H)-yl)methyl phosphate]
- inhibition at 1 µM [3]: 48.2%
- inhibition at 10 µM [4]: 92.7%
- IC50: > 500 nM

SMILES: Cc1oc2c(c1CC(=O)/N=c1\scc(-c3ccc(OC(F)(F)F)c(Cl)c3)n1COC(=O)C(C)(C)C)c(=O)n(C)c(=O)n2C [Example 19, [4-[3-Chloro-4-(trifluoromethoxy)phenyl]-2-{[(1,3,6-trimethyl-2,4-dioxo-1,2,3,4-tetrahydrofuro[2,3-d]pyrimidin-5-yl)acetyl]imino}-1,3-thiazol-3 (2H)-yl]methyl 2,2-dimethylpropanoate]
- inhibition at 1 µM [1]: 70.3%
- inhibition at 10 µM [2]: 96.7%
- IC50: 100 to 500 nM

SMILES: Cn1c(=O)c2c(CC(=O)/N=c3\scc(-c4ccc(F)c(C(F)(F)F)c4F)n3COC(=O)[C@@H]3CCCN3)csc2n(C)c1=O [Example 8, [4-[2,4-Difluoro-3-(trifluoromethyl)phenyl]-2-{[(1,3-dimethyl-2,4-dioxo-1,2,3,4-tetrahydrothieno[2,3-d]pyrimidin-5-yl)acetyl]imino}-1,3-thiazol-3(2H)-yl]methyl L-prolinate hydrochloride]
- inhibition at 1 µM [1]: 96.5%
- inhibition at 10 µM [2]: 98.3%
- IC50: < 100 nM

SMILES: CC(C)C(=O)OCn1c(-c2ccc(C(F)(F)F)c(F)c2)cs/c1=N\C(=O)Cc1csc2c1c(=O)n(C)c(=O)n2C [Example 1, [2-{[(1,3-Dimethyl-2,4-dioxo-1,2,3,4-tetrahydrothieno[2,3-d]pyrimidin-5-yl)acetyl]imino}-4-[3-fluoro-4-(trifluoromethyl)phenyl]-1,3-thiazol-3 (2H)-yl]methyl-2-methyl propanoate]
- inhibition at 1 µM [1]: 68.1%
- inhibition at 10 µM [2]: 90.3%
- IC50: 100 to 500 nM

SMILES: Cn1c(=O)c2c(CC(=O)/N=c3\scc(-c4ccc(C(F)(F)F)c(F)c4F)n3COP(=O)(O)O)nsc2n(C)c1=O [Example 31, [4-[2,3-Difluoro-4-(trifluoromethyl)phenyl]-2-{[(5,7-dimethyl-4,6-dioxo-4,5,6,7-tetrahydro[1,2]thiazolo[5,4-d]pyrimidin-3-yl)acetyl]imino}-1,3-thiazol-3 (2H)-yl]methyl dihydrogen phosphate]
- inhibition at 1 µM [1]: 60%
- inhibition at 10 µM [2]: 99.2%
- IC50: > 500 nM

SMILES: CC[C@H](C)[C@H](N)C(=O)OCn1c(-c2ccc(OC(F)(F)F)c(Cl)c2)cs/c1=N\C(=O)Cc1c(C)oc2c1c(=O)n(C)c(=O)n2C [Example 22, [4-[3-Chloro-4-(trifluoromethoxy)phenyl]-2-{[(1,3,6-trimethyl-2,4-dioxo-1,2,3,4-tetrahydrofuro[2,3-d]pyrimidin-5-yl)acetyl]imino}-1,3-thiazol-3 (2H)-yl]methyl L-isoleucinate hydrochloride]
- inhibition at 1 µM [1]: 99.2%
- inhibition at 10 µM [2]: 99.6%
- IC50: 100 to 500 nM

SMILES: Cc1oc2c(c1CC(=O)/N=c1\scc(-c3ccc(C(F)(F)F)c(F)c3F)n1COP(=O)(O)O)c(=O)n(C)c(=O)n2C [Example 27, 4-[2,3-Difluoro-4-(trifluoromethyl)phenyl]-2-{[(1,3,6-trimethyl-2,4-dioxo-1,2,3,4-tetrahydrofuro[2,3-d]pyrimidin-5-yl)acetyl]imino}-1,3-thiazol-3(2H)-yl]methyl dihydrogen phosphate]
- inhibition at 1 µM [1]: 93.8%
- inhibition at 10 µM [2]: 99.3%
- IC50: < 100 nM

SMILES: CC(C)C(=O)OCn1c(-c2ccc(F)c(C(F)(F)F)c2F)cs/c1=N\C(=O)Cc1csc2c1c(=O)n(C)c(=O)n2C [Example 2, [4-[2,4-Difluoro-3-(trifluoromethyl)phenyl]-2-{[(1,3-dimethyl-2,4-dioxo-1,2,3,4-tetrahydrothieno[2,3-d]pyrimidin-5-yl)acetyl]imino}-1,3-thiazol-3(2H)-yl]methyl-2-methylpropanoate]
- inhibition at 1 µM [1]: 54.8%
- inhibition at 10 µM [2]: 70.2%
- IC50: > 500 nM

SMILES: CCc1sc2c(c1CC(=O)/N=c1\scc(-c3ccc(C(F)(F)F)c(F)c3)n1COP(=O)(O)O)c(=O)n(C)c(=O)n2C [Example 17, [2-{[(6-ethyl-1,3-dimethyl-2,4-dioxo-1,2,3,4-tetrahydrothieno[2,3-d]pyrimidin-5-yl)acetyl]imino}-4-[3-fluoro-4-(trifluoromethyl)phenyl]-1,3-thiazol-3 (2H)-yl]methyl dihydrogen phosphate]
- inhibition at 1 µM [1]: 20.8%
- inhibition at 10 µM [2]: 96.8%
- IC50: > 500 nM
